Patent publication US7879887B2, “α-amino acid derivatives and medicaments containing the same as an active ingredient” (Nissan Chemical Industries, Ltd., priority 2006, dated 2011)

What was measured:
[1] = tested on: ovarian cancer cell line IGROV1; experiment: Cell proliferation inhibitory activity, IGROV1; type: cell-based; conditions: cells counted 4 days later with Cell Counting Kit-8
Protocol: (§1) Evaluations were carried out using colon carcinoma cell line SW620 (Cat. No. CCL-227), lung carcinoma cell line NCI-H460 (Cat. No. HTB-177), prostate cancer cell line DU 145 (Cat. No. HTB-81), breast cancer cell line MDA-MB-231 (Cat. No. HTB26) and leukemia cell line KG-1a (Cat. No. CCL-246.1) purchased from ATCC, pancreatic cancer cell line MIAPaCa-2 (Cat. No. CRL-1420) purchased from Dainippon Pharmaceutical, and ovarian cancer cell line IGROV1 received from the Netherland Cancer Institute. The cells were cultured under the conditions recommended by the supplier for each cell line, or with respect to IGROV1, according to the method described in Cancer Res. 59: 4559-4563, 1999. Cells suspended in media were added to solutions containing the test substances at various concentrations followed by culturing in a 5% CO2 incubator at 37° C. The numbers of cells were counted 4 days later with the Cell Counting Kit-8. IC50 values were calculated by assigning measured values in the case of not containing a test substance to an inhibition of 0%, and assigning measured values in the case of not containing a test substance or cells to an inhibition of 100%.

[2] = tested on: colon carcinoma cell line SW620; experiment: Cell proliferation inhibitory activity, SW620; type: cell-based, human; conditions: cells counted 4 days later with Cell Counting Kit-8
Protocol: as §1

leukemia cell line KG-1a = experiment: Cell proliferation inhibitory activity, KG-1a; type: cell-based; conditions: cells counted 4 days later with Cell Counting Kit-8
Protocol: as §1

CDK2/Cyclin E complex = CDK2/Cyclin E complex (Homo sapiens, UniProt P24941); experiment: In vitro kinase assay, CDK2/Cyclin E complex; type: biochemical; conditions: recombinant protein (Upstate); read-out: CDK2/cyclinE IC50
Protocol: (§2) Inhibitory activity against Aurora A, CDK1/Cyclin B complex, CDK2/Cyclin E complex and CDK3/Cyclin E complex were measured by in vitro kinase assay using recombinant proteins.

CDK3/Cyclin E complex = target: T1, CDK3/Cyclin E complex (Homo sapiens, UniProt Q00526); experiment: In vitro kinase assay, CDK3/Cyclin E complex; type: biochemical; conditions: recombinant protein (Upstate); read-out: CDK3/cyclinE IC50
T1 construct: purchased Upstate Inc. 14-487
T1 sequence (Q00526 whole entry): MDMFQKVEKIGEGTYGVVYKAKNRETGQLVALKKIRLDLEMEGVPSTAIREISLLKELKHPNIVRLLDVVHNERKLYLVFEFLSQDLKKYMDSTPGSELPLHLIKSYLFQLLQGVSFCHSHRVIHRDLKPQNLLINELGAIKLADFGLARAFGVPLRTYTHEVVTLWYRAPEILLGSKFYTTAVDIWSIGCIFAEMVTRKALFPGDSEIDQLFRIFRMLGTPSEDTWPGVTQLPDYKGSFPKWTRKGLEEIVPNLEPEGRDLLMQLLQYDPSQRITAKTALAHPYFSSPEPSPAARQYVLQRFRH
T1 sequence (P24864 whole entry partner): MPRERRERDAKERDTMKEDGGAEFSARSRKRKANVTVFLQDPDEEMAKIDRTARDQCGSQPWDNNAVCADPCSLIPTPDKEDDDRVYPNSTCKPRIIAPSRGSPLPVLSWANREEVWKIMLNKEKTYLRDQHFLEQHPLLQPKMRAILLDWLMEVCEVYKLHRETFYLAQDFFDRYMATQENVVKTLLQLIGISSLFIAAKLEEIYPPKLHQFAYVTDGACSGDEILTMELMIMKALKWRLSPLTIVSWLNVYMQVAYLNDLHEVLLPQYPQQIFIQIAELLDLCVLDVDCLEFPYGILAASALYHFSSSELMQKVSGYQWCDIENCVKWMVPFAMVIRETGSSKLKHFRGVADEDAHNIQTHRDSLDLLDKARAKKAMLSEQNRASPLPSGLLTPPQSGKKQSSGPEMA
Protocol: as §2

recombinant human βARK1 = target: T2, recombinant human βARK1 (Homo sapiens, UniProt P25098); experiment: Inhibitory activity against βARK1 (33P phosphorylation of synthetic peptide); type: biochemical; conditions: recombinant human βARK1, 60 minutes at room temperature
T2 construct: made in house; host or cells: Sf-9 insect cells (baculovirus, pBacPAK8)
T2 sequence (P25098 1-689): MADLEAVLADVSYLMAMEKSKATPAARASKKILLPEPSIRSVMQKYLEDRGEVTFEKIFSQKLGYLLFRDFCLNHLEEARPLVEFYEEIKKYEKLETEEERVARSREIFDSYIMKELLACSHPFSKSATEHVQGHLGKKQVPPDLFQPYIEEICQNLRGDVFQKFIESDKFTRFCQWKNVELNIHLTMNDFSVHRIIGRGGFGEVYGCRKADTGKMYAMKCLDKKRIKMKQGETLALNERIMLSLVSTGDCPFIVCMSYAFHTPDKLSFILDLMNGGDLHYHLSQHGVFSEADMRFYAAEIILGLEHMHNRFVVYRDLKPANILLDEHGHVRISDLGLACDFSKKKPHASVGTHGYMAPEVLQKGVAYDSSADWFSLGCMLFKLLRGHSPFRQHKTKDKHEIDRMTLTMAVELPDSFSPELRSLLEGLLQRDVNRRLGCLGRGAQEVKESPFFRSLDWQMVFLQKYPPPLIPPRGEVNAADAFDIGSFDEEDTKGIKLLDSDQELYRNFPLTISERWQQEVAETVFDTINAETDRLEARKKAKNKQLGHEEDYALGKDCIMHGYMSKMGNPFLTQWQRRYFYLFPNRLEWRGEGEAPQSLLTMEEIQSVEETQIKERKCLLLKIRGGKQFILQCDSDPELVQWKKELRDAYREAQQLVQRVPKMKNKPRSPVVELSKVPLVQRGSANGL
Protocol: Human βARK1 was amplified by PCR based on the base sequence of human βARK1 mRNA registered in GenBank (Accession No. M80776) using a human leukocyte cDNA library (Gibco BRL Cat. No. 10421-022) as a template. The amplified cDNA fragment was inserted into a pBacPAK8 vector (Clontech) to construct a plasmid.
Recombinant human βARK1 was expressed using the BacPAK Baculovirus Expression System (Clontech, Cat. No. K1601-1). 1×10^6 Sf-9 cells were adhered to a 35 mm dish in 2.5 mL of TMN-FH Insect Medium containing 10 vol % FBS (Pharminogen, Cat. No. PM-21227M) and cultured overnight at 27° C. On the following day, the medium was removed and 500 ng of the above plasmid, BacPAK6 viral DNA cleaved with Bsu36I (5 μL) and 1.5 mL of the same medium mixed with 4 μL of Bacfectin were added followed by culturing for 5 hours, further adding 1.5 mL of medium and subsequently culturing for 5 days. […] The culture supernatant after 5 days was recovered and a plaque assay was carried out to isolate single plaques. These were then infected into Sf-9 cells and the resulting culture supernatant was designated as Passage 1 (1−3×10^11 pfu/mL). Passage 1 was added to 3×10^7 Sf-9 cells to a multiplicity of infection (MOI) of 0.1 (pfu/cell), suspension culturing was carried out for 5 days using a spinner flask, and the resulting culture supernatant was designated as Passage 2 (4×10^10 pfu/mL) and used as a viral liquid for large-volume expression.
Sf-9 cells at 3×10^9 cells/200 mL were infected by adding Passage 2 to an MOI of 100 followed by addition of medium to bring to a liquid volume of 2 L and further culturing for 3 days. After recovering the cells by centrifugation and washing three times with PBS, the cells were suspended in 100 mL of Lysis Buffer (20 mmol/L HEPES-HCl (pH 7.2), 5 mmol/L EDTA, 3 mmol/L phenylmethylsulfonyl fluoride (PMSF)). After lysing the cells by ultrasonic treatment at low temperature, the supernatant was recovered by centrifuging (45,000×g, 15 minutes) (sup1). NaCl was added to the resulting supernatant to a final concentration of 250 mmol/L followed by ultracentrifugation (300,000×g, 60 minutes) and using the subsequent supernatant as a crude cell extract (sup2).
Purification was carried out with reference to the literature (Benovic, J. L., Methods Enzymol. 1991; 200: 351-362; Kim, C. M. et al., Receptor 1993; 3: 39-55; Sohlemann, P. et al., FEBS Letters 1993; 324: 59-62). The crude cell extract was accurately brought to a volume of 400 mL with Buffer C (20 mmol/L HEPES-HCl (pH 7.2), 5 mmol/L EDTA, 0.02 vol % Triton X-100) followed by loading onto a 50 mL SP-Sepharose FF (Amersham Pharmacia Biotech) column equilibrated with Buffer C. […] ETA was carried out on each fraction using anti-GRK2 antibody (Santa-Cruz Cat. No. SC-562) and the positive fractions were collected (GRK2=βARK1). This was then diluted three-fold with Buffer C and loaded on a 5 mL HiTrap Heparin column (Amersham Pharmacia Biotech) column equilibrated with Buffer C. After washing the column with Wash Buffer (100 mmol/L NaCl, Buffer C), the column was eluted with an NaCl concentration gradient (100 to 600 mmol/L NaCl for 100 minutes, flow rate: 1 mL/min). The positive fractions as determined by ETA were collected and stored in a freezer at −80° C.
A synthetic peptide having an amino acid sequence of biotinated-[…] was used in accordance with a previous report (Chen, C. Y. et al., J. Biol. Chem. 1993; 268: 7825-7831). This synthetic peptide can also be synthesized with reference to known synthesis methods (for example, Chen, C. Y. et al., J. Biol. Chem. 1993; 268: 7825-7831, Biochemistry 1991; 30: 5118-5125). 2 μl of a DMSO solution in which the test compound was diluted to as to be […] the final concentration was dispensed into a 96-well plate (round bottom) (Falcon 351190) (final concentration: 4 vol % DMSO). […]

[3] = tested on: prostate cancer cell line DU 145; experiment: Cell proliferation inhibitory activity, DU 145; type: cell-based, human; conditions: Homo sapiens, 96 h, cells counted 4 days later with Cell Counting Kit-8
Protocol: as §1

[4] = tested on: lung carcinoma cell line NCI-H460; experiment: Cell proliferation inhibitory activity, NCI-H460; type: cell-based; conditions: Homo sapiens, 96 h, cells counted 4 days later with Cell Counting Kit-8
Protocol: as §1

Aurora A = target: T3, Aurora A (Homo sapiens, UniProt O14965); experiment: In vitro kinase assay, Aurora A; type: biochemical; conditions: recombinant protein (Upstate)
T3 construct: purchased Upstate Inc. 14-511
T3 sequence (O14965 1-403): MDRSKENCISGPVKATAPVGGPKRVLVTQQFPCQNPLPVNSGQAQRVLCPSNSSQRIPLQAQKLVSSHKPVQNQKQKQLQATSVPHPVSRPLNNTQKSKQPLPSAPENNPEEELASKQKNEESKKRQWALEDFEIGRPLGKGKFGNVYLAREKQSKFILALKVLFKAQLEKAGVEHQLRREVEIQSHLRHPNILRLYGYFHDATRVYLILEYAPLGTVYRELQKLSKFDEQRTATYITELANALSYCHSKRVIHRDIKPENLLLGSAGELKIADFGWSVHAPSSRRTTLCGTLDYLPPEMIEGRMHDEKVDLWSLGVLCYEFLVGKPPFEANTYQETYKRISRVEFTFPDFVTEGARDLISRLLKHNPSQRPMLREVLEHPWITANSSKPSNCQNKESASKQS
Protocol: (§3) Inhibitory activity against Aurora A, CDK1/Cyclin B complex, CDK2/Cyclin E complex and CDK3/Cyclin E complex were measured by in vitro kinase assay using recombinant proteins. The assays were carried out by using recombinant proteins (Upstate Inc.) for Aurora A, CDK1/Cyclin B complex, CDK2/Cyclin E complex and CDK3/Cyclin E complex (respective cat. nos. 14-511, 14-450, 14-448 and 14-487), in accordance with the procedure described in the product instructions thereof. The 50% inhibitory concentrations (IC50 values) were calculated by assigning measured values in the case of not containing a test compound to an inhibition of 0%, and assigning measured values in the case of not containing a test compound and enzyme to an inhibition of 100%.

[5] = tested on: breast cancer cell line MDA-MB-231; experiment: Cell proliferation inhibitory activity, MDA-MB-231; type: cell-based; conditions: Homo sapiens, 96 h, cells counted 4 days later with Cell Counting Kit-8
Protocol: as §1

CDK1/Cyclin B complex = target: T4, CDK1/Cyclin B complex (Homo sapiens, UniProt P06493); experiment: In vitro kinase assay, CDK1/Cyclin B complex; type: biochemical; conditions: recombinant protein (Upstate)
T4 construct: purchased Upstate Inc. 14-450
T4 sequence (P06493 whole entry): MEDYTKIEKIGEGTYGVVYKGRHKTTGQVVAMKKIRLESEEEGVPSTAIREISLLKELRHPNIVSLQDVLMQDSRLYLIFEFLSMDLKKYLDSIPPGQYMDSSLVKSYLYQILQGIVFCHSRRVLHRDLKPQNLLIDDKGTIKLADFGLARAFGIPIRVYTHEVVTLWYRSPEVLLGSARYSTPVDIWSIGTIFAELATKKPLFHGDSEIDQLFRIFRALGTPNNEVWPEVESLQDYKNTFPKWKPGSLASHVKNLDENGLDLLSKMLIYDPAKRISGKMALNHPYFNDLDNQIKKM
T4 sequence (P14635 whole entry partner): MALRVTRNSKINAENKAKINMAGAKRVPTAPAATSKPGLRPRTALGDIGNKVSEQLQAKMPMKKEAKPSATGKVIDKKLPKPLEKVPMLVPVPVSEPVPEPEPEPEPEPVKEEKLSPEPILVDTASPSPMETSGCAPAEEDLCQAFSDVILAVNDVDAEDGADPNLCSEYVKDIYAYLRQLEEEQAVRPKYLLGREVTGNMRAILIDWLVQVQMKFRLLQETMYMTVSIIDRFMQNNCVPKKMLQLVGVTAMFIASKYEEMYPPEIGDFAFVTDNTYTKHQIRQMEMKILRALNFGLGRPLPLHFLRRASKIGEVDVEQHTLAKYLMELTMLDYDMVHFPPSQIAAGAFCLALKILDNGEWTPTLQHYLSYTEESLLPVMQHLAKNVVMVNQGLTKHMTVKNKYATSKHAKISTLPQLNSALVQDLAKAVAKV
Protocol: as §3

| SMILES | IC50 [1] | IC50 [2] | IC50 (leukemia cell line KG-1a) | IC50 (CDK2/Cyclin E complex) | IC50 (CDK3/Cyclin E complex) | IC50 (recombinant human βARK1) | IC50 ([2]; Homo sapiens, SW-620, 96 h) | IC50 [3] | IC50 [4] | IC50 (leukemia cell line KG-1a; Homo sapiens, 96 h) | IC50 (Aurora A) | IC50 [5] | IC50 (CDK1/Cyclin B complex) |
| --- | --- | --- | --- | --- | --- | --- | --- | --- | --- | --- | --- | --- | --- |
| COc1cccc(NCC(=O)Nc2nc3ccc4[nH]ncc4c3s2)c1 [compound 1] | 4600 nM | 1600 nM | < 100 nM | – | – | – | – | – | – | – | – | – | – |
| CC(=O)Nc1cc(NC(C(=O)Nc2nc3c(C(F)(F)F)cc4[nH]ncc4c3s2)c2ccccc2)ccc1Cl (stereo not shown) [compound 30] | – | – | – | 172 nM | 128 nM | 9.8 nM | 1800 nM | 2700 nM | 4100 nM | – | – | – | – |
| CCC(=O)Nc1cc(NC(C)(C)C(=O)Nc2nc3c(C(F)(F)F)cc4[nH]ncc4c3s2)ccc1Cl [compound 56] | – | – | – | 390 nM | 304 nM | 3.2 nM | 1100 nM | 2500 nM | 2500 nM | 400 nM | – | – | – |
| CC(C)(Nc1ccc(Cl)c(NS(C)(=O)=O)c1)C(=O)Nc1nc2c(C(F)(F)F)cc3[nH]ncc3c2s1 [compound 84] | – | – | – | 44 nM | 44 nM | – | 1600 nM | 3400 nM | 3200 nM | 200 nM | 247 nM | 4800 nM | 205 nM |
| CNC(=O)Nc1cc(NC(C)(C)C(=O)Nc2nc3c(C(F)(F)F)cc4[nH]ncc4c3s2)ccc1Cl [compound 90] | – | – | – | 160 nM | 70 nM | – | 1300 nM | 1900 nM | 2500 nM | – | – | 4400 nM | 365 nM |
| CC(C)(Nc1ccc(Cl)c(-n2cc[nH]c2=O)c1)C(=O)Nc1nc2c(C(F)(F)F)cc3[nH]ncc3c2s1 [compound 97] | – | – | – | – | 279 nM | 12 nM | – | – | – | – | – | – | – |
| O=C(Nc1nc2ccc3[nH]ncc3c2s1)C1(Nc2ccc(Cl)cc2)CCC1 [compound 114] | – | – | – | 83 nM | 174 nM | – | 700 nM | – | – | < 100 nM | – | 4700 nM | – |
| CC(C)(Nc1ccc(Cl)c(C(=O)NCCC(=O)O)c1)C(=O)Nc1nc2c(C(F)(F)F)cc3[nH]ncc3c2s1 [compound 139] | – | – | – | 168 nM | 70 nM | 7.9 nM | – | – | – | – | 106 nM | – | 238 nM |
| CC(C)(Nc1ccc(Cl)c(C(=O)NCC(=O)O)c1)C(=O)Nc1nc2c(C(F)(F)F)cc3[nH]ncc3c2s1 [compound 145] | – | – | – | 194 nM | 134 nM | 7.7 nM | – | – | – | – | 76 nM | – | 259 nM |
